Tests used:
[1] = molecular target: RAF proto-oncogene serine/threonine-protein kinase (Homo sapiens, UniProt P04049); assay: Inhibition of c-RAF (unknown origin)
Aurora kinase A = molecular target: T1, Aurora kinase A (Homo sapiens, UniProt O14965); assay: Inhibition of aurora A (unknown origin)
T1 sequence (O14965 whole entry): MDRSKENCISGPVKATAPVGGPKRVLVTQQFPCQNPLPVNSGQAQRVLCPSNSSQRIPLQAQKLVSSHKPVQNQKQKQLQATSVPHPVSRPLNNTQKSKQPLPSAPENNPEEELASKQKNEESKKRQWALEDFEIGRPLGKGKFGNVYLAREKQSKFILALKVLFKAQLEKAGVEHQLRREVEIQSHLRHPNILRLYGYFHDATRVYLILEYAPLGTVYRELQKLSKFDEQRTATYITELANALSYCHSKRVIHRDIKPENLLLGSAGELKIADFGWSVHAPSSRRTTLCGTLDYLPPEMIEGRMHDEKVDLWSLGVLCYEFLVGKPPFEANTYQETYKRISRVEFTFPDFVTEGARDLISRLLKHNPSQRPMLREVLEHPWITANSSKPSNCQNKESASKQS

PANC-1 = assay: Antiproliferative activity against human PANC1 cells at 10 uM incubated for 48 hrs by MTT assay relative to control; assay type: functional
MIA PaCa-2 = assay: Antiproliferative activity against human MIAPaCa2 cells at 10 uM incubated for 48 hrs by MTT assay relative to control; assay type: functional
BXPC-3 = assay: Antiproliferative activity against human BxPC3 cells at 10 uM incubated for 48 hrs by MTT assay relative to control; assay type: functional

Sequence of RAF proto-oncogene serine/threonine-protein kinase (P04049 whole entry): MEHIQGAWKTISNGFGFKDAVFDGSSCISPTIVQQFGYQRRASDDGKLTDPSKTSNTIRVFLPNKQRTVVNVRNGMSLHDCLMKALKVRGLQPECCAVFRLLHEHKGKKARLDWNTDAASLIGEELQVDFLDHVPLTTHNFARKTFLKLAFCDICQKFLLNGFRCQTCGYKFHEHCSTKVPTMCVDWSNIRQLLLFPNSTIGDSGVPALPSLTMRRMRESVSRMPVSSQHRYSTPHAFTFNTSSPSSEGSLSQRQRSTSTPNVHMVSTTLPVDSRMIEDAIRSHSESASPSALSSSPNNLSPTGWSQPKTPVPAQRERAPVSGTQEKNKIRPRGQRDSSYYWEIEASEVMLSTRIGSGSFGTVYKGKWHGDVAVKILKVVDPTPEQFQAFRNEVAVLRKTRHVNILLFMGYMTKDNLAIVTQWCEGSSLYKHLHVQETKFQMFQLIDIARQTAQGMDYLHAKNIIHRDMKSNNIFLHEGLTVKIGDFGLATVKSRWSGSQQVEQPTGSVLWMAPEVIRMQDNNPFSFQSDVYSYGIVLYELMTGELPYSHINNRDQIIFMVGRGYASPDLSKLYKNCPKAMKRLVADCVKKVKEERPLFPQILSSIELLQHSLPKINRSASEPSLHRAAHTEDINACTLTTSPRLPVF

| IC50 [1] [nM] | IC50 (Aurora kinase A) [nM] | SMILES | Activity (PANC-1) [%] | Activity (MIA PaCa-2) [%] | Activity (BXPC-3) [%] |
| --- | --- | --- | --- | --- | --- |
| 116 | 15 | Cc1cn(-c2cc(C(=O)Nc3cccc(Nc4ccc5c(c4)NC(=O)/C5=C\c4ccc[nH]4)c3)cc(C(F)(F)F)c2)cn1 | – | – | – |
| – | – | CN(C)S(=O)(=O)c1cc(-c2cnc3[nH]cc(-c4ccncc4)c3c2)cnc1N | 30 | <20 | <20 |

From ChEMBL document CHEMBL4346723, “Targeting tropomyosin receptor kinase for cancer therapy” (Eur J Med Chem, 2019)
